Active and inactive are the calls of the source. Cut-off read from the data, not from the text of the source: actives have a measured IC50 and inactives only a lower limit.

For the assay, the target named is Envelope glycoprotein gp160 (Human immunodeficiency virus 1, UniProt Q6QLK5). The experiment in a line: cell-free HIV fusion peptide-binding blockers – biochemical, uHTS, fluorescence dequenching, […] (AID 1986).
Chain of Envelope glycoprotein gp160 (Q6QLK5 whole entry, the tested form may be a part): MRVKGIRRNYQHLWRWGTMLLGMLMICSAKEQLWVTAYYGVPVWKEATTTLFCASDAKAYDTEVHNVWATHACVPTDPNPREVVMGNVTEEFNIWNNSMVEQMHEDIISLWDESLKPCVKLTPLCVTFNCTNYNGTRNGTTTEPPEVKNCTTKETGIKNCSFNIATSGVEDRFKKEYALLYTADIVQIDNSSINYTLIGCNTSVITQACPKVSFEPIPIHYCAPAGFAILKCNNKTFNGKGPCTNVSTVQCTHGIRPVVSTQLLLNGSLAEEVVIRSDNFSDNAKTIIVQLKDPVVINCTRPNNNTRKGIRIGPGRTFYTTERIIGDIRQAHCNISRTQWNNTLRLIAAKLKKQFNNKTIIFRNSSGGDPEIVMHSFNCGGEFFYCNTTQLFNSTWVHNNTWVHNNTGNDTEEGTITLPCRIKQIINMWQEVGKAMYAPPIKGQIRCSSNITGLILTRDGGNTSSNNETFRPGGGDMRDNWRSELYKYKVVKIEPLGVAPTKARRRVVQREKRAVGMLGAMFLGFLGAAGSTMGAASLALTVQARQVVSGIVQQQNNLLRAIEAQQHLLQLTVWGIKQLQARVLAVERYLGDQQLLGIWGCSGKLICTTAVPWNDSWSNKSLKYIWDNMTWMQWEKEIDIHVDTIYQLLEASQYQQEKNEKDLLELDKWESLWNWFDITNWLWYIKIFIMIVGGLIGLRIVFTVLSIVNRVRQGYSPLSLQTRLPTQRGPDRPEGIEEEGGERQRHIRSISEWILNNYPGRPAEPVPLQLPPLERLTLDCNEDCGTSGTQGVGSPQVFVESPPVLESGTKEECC
Regarding `CC1=CN2C(=N)/C(=C/c3cc(Cl)c(O)c(Cl)c3)C(=O)N=C2S1`, the 50% inhibitory concentration (IC50) (in general, the point on the concentration scale where inhibition reaches its midpoint) is 26.2 µM (active). The result for `COc1cc(/C=C2/C(=O)NN(c3ccc(Cl)cc3)C2=O)cc(Br)c1O` reads 15.5 µM (active). The result for `O=C(NN1C(=O)/C(=C\c2ccc(O)c([N+](=O)[O-])c2)SC1=S)c1ccccc1Cl` reads 24.9 µM (active).

Source of the values: ChEMBL document CHEMBL1201862, “PubChem BioAssay data set” (2004).
